Data: patent US20210070747A1, “2(1H)-QUINOLINONE DERIVATIVE” (priority 2017, published 2021)
In brackets after ≈: the same amount, converted by molar mass. Where a name gives a salt, the structure may show the parent alone. Read-outs that look alike come from different tables or passages of the source.

Tests used:
[1] = target: T1, E. coli DNA gyrase (Escherichia coli, UniProt P0AES6); experiment: Test for evaluating the activity of inhibiting E. coli DNA gyrase enzyme (Method 2, supercoiling, recombinant gyrA/gyrB complex); type: biochemical
T1 construct: made in house; host or cells: E. coli BL21 (DE3)
Method in brief: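 Recombinant E. coli gyrA/gyrB complex (His-tagged, BL21(DE3)-expressed, Ni-NTA purified; 0.135 nmol/mL final) supercoiled relaxed pBR322 (1 ng/μL) with 0.5 mmol/L ATP in pH 8.0 Tris buffer, 60 min at room temperature. H19 stopped the reaction; supercoiled/relaxed ratio read at 485/535 nm, inhibition curves built from varying compound concentrations.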

[2] = target: T2, E. coli topoisomerase IV (Escherichia coli, UniProt P20083); experiment: Test for evaluating the activity of inhibiting E. coli topoisomerase IV enzyme (relaxation); type: biochemical
T2 construct: purchased Inspiralis
T2 sequence (P20083 whole entry): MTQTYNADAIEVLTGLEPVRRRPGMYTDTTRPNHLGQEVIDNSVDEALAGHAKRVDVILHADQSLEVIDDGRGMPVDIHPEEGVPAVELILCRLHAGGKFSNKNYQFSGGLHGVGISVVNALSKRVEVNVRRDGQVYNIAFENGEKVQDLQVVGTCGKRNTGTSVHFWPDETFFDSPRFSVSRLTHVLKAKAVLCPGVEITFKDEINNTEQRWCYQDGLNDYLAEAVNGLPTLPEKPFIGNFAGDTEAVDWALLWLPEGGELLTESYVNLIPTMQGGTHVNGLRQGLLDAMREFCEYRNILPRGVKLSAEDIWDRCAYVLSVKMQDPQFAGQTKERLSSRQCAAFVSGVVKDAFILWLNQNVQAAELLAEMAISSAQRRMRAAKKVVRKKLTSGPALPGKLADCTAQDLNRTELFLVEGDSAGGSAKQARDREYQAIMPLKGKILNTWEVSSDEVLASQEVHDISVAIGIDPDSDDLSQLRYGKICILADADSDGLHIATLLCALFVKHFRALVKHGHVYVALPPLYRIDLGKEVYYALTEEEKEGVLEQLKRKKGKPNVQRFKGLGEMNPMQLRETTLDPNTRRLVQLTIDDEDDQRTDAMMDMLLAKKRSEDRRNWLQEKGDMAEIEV
T2 sequence (P0AFI2 whole entry, further chain): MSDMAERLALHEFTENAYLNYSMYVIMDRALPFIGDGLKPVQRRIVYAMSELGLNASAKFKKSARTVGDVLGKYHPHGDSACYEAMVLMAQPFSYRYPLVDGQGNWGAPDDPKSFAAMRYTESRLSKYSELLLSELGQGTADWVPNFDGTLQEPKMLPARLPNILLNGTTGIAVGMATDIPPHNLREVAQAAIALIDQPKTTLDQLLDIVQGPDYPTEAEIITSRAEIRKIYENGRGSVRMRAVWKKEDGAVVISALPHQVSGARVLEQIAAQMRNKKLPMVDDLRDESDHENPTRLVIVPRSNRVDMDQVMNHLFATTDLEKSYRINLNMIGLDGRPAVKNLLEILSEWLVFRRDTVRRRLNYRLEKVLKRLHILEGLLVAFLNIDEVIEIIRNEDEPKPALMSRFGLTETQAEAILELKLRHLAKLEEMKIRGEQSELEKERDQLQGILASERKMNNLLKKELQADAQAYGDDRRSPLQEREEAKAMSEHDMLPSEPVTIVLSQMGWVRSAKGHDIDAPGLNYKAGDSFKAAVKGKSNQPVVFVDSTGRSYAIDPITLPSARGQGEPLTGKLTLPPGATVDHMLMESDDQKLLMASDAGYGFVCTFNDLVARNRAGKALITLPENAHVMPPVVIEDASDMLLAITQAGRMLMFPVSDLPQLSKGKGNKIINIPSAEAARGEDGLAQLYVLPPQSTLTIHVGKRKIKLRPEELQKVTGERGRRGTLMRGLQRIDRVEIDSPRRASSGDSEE
Procedure: The enzymatic activity of E. coli topoisomerase IV was measured by a method comprising reacting topoisomerase IV and its substrate, supercoiled pBR322 (Inspiralis), in the presence of ATP and detecting the post-reaction supercoiled pBR322/relaxed pBR322 ratio with H19.
Specifically, to 2 ng/μL of supercoiled pBR322, E. coli topoisomerase IV enzyme (Inspiralis) was added at a final concentration of 0.0075 U/μL and the mixture was incubated for 30 minutes at room temperature. This reaction was carried out in 20 mmol/L tris-HCl buffered solution (pH 8.0) comprising 0.5 mmol/L ATP, 0.005% bridge 35, 35 mmol/L ammonium acetate, 8 mmol/L magnesium chloride, 4.6% glycerol, and 1 mmol/L dithiothreitol. To the reaction mixture, H19 was added to bring the reaction to an end; thereafter, the supercoiled pBR322/relaxed pBR322 ratio was detected at excitation wavelength/emission wavelength=485 nm/535 nm. An inhibition curve was obtained by allowing the analyte compound to be present at varying concentrations during the reaction described above.

[3] = test system: E. Coli ATCC 25922; experiment: Test for evaluating antibacterial activity (E. coli), broth microdilution MIC; type: cell-based; conditions: Escherichia coli, ATCC25922; 35° C., 18 hours, cation-adjusted Mueller-Hinton medium
Method in brief: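 Broth microdilution per modified CLSI method in cation-adjusted Mueller-Hinton medium. Inoculum from overnight heart infusion agar growth, McFarland 0.5 suspension diluted 10-fold; incubation 35° C for 18 hours. MIC taken as lowest drug concentration with no visible growth.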

[4] = test system: N. gonorrhoeae ATCC 49226; experiment: Test for evaluating antibacterial activity (N. gonorrhoeae), broth microdilution MIC; type: cell-based; conditions: Neisseria gonorrhoeae, ATCC49226; 35° C., 24 hours, gonococcal broth
Method in brief: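 Broth microdilution in gonococcal broth with 1% supplement C, inoculum from overnight chocolate II agar culture at McFarland 0.5 diluted 5-fold.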

[5] = target: T1, E. coli DNA gyrase; experiment: Test for evaluating the activity of inhibiting E. coli DNA gyrase enzyme (Method 1, supercoiling, Inspiralis enzyme); type: biochemical
Method in brief: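 Relaxed pBR322 (1 ng/μL) supercoiled by E. coli gyrase (0.006 U/μL final) with 0.5 mmol/L ATP in 20 mmol/L Tris-HCl pH 8.0, 8 mmol/L MgCl2, 35 mmol/L ammonium acetate, 60 min, room temperature. Stopped with H19; supercoiled/relaxed ratio read at 485/535 nm; inhibition curve across compound concentrations.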

[6] = Method 2, read-out: E. Coli Gyrase supercoiling IC50
[7] = read-out: E. Coli TopoIV relaxation IC50
[8] = Method 1, read-out: E. Coli Gyrase supercoiling IC50

Molecule `CNc1cc(F)cc2cc(C(=O)Nc3ccc(C(=O)O)cc3CN3CCCCC3)c(=O)[nH]c12` [Example 96, 4-{[6-fluoro-8-(methylamino)-2-oxo-1,2-dihydroquinoline-3-carbonyl]amino}-3-[(piperidine-1-yl)methyl] benzoic acid] has an IC50 [1] of 0.31 nM, an IC50 [2] of 15.3 nM and an MIC [3] of 4 µg/mL (≈ 8.84 µM). It also gave an MIC [4] of 0.015 µg/mL (≈ 0.0332 µM).

In the case of `CNc1cc(F)cc2c(O)c(C(=O)Nc3ccc(C(=O)O)cc3)c(=O)[nH]c12` [Example 117, 4-[[6-Fluoro-4-hydroxy-8-(methylamino)-2-oxo-1,2-dihydroquinoline-3-carbonyl]amino]benzoic Acid], the IC50 [1, 6] is reported as 1.1 nM, the IC50 [2, 7] is reported as 62.9 nM and the MIC [3] is reported as 1 µg/mL (≈ 2.69 µM). For the same molecule, the MIC [4] was 0.0005 µg/mL (≈ 0.00135 µM).

Work on `CNc1cc(F)cc2cc(C(=O)Nc3ccc(C(=O)O)cc3)c(=O)[nH]c12` [Example 33, 4-[[6-Fluoro-8-(methylamino)-2-oxo-1,2-dihydroquinoline-3-carbonyl]amino]benzoic Acid] yielded an IC50 [1] of 0.36 nM, an IC50 [2] of 219 nM and an MIC [3] of 16 µg/mL (≈ 45 µM). It also gave an MIC [4] of 0.004 µg/mL (≈ 0.0113 µM).

For `CNc1cc(F)cc2c(O)c(C(=O)Nc3ccc(C(=O)O)cc3CN3CCCCC3)c(=O)[nH]c12.O=C(O)C(F)(F)F` [Example 153, 4-{[6-fluoro-4-hydroxy-8-(methylamino)-2-oxo-1,2-dihydroquinoline-3-carbonyl]amino}-3-[(piperidine-1-yl)methyl]benzoic acid-trifluoroacetate], the IC50 [1] was 7.53 nM, the IC50 [2] was 4930 nM and the MIC [3] was 8 µg/mL. For the same molecule, the MIC [4] was 0.06 µg/mL.

Molecule `CNc1cc(F)cc2cc(C(=O)Nc3ccc(C(=O)O)cc3CN(CCO)C3CCCCC3)c(=O)[nH]c12.Cl` [Example 104, 3-{[cyclohexyl (2-hydroxyethyl)amino]methyl}-4-{[6-fluoro-8-(methylamino)-2-oxo-1,2-dihydroquinoline-3-carbonyl]amino} benzoic acid-hydrochloride] has an IC50 [1] of 0.29 nM, an IC50 [2] of 23.4 nM and an MIC [3] of 8 µg/mL. The MIC [4] was 0.015 µg/mL.

In the case of `CNc1cc(F)cc2cc(C(=O)Nc3ccc(C(=O)NS(=O)(=O)N(C)C)cc3)c(=O)[nH]c12` [Example 146, N-{4-[(dimethylsulfamoyl)carbamoyl]phenyl}-6-fluoro-8-(methylamino)-2-oxo-1,2-dihydroquinoline-3-carboxamide], the IC50 [1, 6] is reported as 0.43 nM, the IC50 [2, 7] is reported as 51.9 nM and the MIC [3] is reported as 16 µg/mL (≈ 34.7 µM). It also gave an MIC [4] of 0.008 µg/mL (≈ 0.0173 µM).

For `CNc1cc(F)cc2cc(C(=O)Nc3cnc(C(=O)O)nc3)c(=O)[nH]c12` [Example 65, 5-[[6-Fluoro-8-(methylamino)-2-oxo-1,2-dihydroquinoline-3-carbonyl]amino]pyrimidine-2-carboxylic Acid], the IC50 [5, 8] was 0.95 nM, the IC50 [2, 7] was 32.5 nM and the MIC [3] was greater than 16 µg/mL. It also gave an MIC [4] of 0.5 µg/mL (≈ 1.4 µM).

`CNc1cc(F)cc2cc(C(=O)Nc3ccccc3CN(C)C3CCCCC3)c(=O)[nH]c12` [Example 52, N-(2-{[cyclohexyl(methyl)amino]methyl}phenyl)-6-fluoro-8-(methylamino)-2-oxo-1,2-dihydroquinoline-3-carboxamide] showed an IC50 [5, 8] of 2.47 nM, an IC50 [2, 7] of 519 nM and an MIC [3] of 16 µg/mL (≈ 36.7 µM). It also gave an MIC [4] of 0.5 µg/mL (≈ 1.15 µM).

Work on `CNc1cc(F)cc2cc(C(=O)Nc3ccc(C(=O)O)cc3CN(C)C3CCCCC3)c(=O)[nH]c12` [Example 70, 3-{[cyclohexyl (methyl)amino]methyl}-4-{[6-fluoro-8-(methylamino)-2-oxo-1,2-dihydroquinoline-3-carbonyl]amino} bezoic acid-hydrochloride] yielded an IC50 [5] of 0.53 nM, an IC50 [2] of 47.4 nM and an MIC [3] of 8 µg/mL. For the same molecule, the MIC [4] was 0.03 µg/mL.

Work on `CCCCCN(C)Cc1cc(C(=O)O)ccc1NC(=O)c1cc2cc(F)cc(NC)c2[nH]c1=O` [Example 98, 4-{[6-fluoro-8-(methylamino)-2-oxo-1,2-dihydroquinoine-3-carbonyl]amino}-3-{[methyl (pentyl)amino)methyl} benzoic acid] yielded an IC50 [1] of 0.21 nM, an IC50 [2] of 41.4 nM and an MIC [3] of 4 µg/mL (≈ 8.54 µM). The MIC [4] was 0.06 µg/mL (≈ 0.128 µM).

Work on `CNc1cc(F)cc2cc(C(=O)Nc3ccc(C(=O)O)cc3CN(C)C)c(=O)[nH]c12` [Example 85, 3-[(dimethylamino)methyl]-4-{[6-fluoro-8-(methylamino)-2-oxo-1,2-dihydroquinoline-3-carbonyl]amino} benzoic acid] yielded an IC50 [1] of 0.61 nM, an IC50 [2] of 176 nM and an MIC [3] greater than 4 µg/mL. The MIC [4] was 2 µg/mL (≈ 4.85 µM).

`CNc1cc(F)cc2cc(C(=O)Nc3ccc(C(=O)O)cc3CN(CC(=O)O)C3CCCCC3)c(=O)[nH]c12` [Example 107, 3-{[(carboxymethyl) (cyclohexyl)amino]methyl} -4-{[6-fluoro-8-(methylamino)-2-oxo-1,2-dihydroquinoline-3-carbonyl]amino} benzoic acid] gave an IC50 [1, 6] of 0.57 nM, an IC50 [2, 7] of 76.3 nM and an MIC [3] greater than 64 µg/mL. The MIC [4] was 0.5 µg/mL (≈ 0.953 µM).

Molecule `CNc1cc(F)cc2c(O)c(C(=O)Nc3ccc(C(=O)NS(=O)(=O)N(C)C)cc3)c(=O)[nH]c12` [Example 148, N-{4-[(dimethyl-sulfamoyl)carbamoyl]phenyl}-6-fluoro-4-hydroxy-8-(methylamino)-2-oxo-1,2-dihydroquinoline-3-carboxamide] has an IC50 [1] of 2.66 nM, an IC50 [2] of 127 nM and an MIC [3] of 1 µg/mL (≈ 2.09 µM). For the same molecule, the MIC [4] was no more than 0.0005 µg/mL.

`CNc1cccc2cc(C(=O)Nc3ccc(C(=O)O)cc3)c(=O)[nH]c12` [Example 2, 4-{[8-(methylamino)-2-oxo-1,2-dihydroquinoline-3-carbonyl]amino} benzoic acid] showed an IC50 [2, 7] of 980 nM, an MIC [3] of 64 µg/mL (≈ 190 µM) and an MIC [4] greater than 1 µg/mL.
